Measurements from patent US20150284375A1 (AJINOMOTO CO., INC., priority 2012, published 2015).

Target: T1, human TRPA1 (Homo sapiens, UniProt O75762)
T1 construct: expressed in transfected cells; host or cells: Human embryonic kidney-derived 293T cells, transiently transfected with the pcDNA3.1/zeo(+) human TRPA1 plasmid
Test: Measurement of TRPA1 antagonist activity (intracellular calcium increase, FLIPR, allylisothiocyanate stimulation)
Type: cell-based
Conditions: allylisothiocyanate 20 μM stimulation, FLIPR calcium assay; read-out: antagonism hTRPA1
How it was run: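 IC50 derives from a sigmoid fit of inhibition of the 5-min FLIPR fluorescence change evoked by 20 μM allylisothiocyanate, normalized between agonist and buffer responses. Test substance, diluted in HBSS/20 mM HEPES pH 7.2 plus 0.1% BSA, was applied 10 min beforehand at room temperature to Calcium4-loaded 293T cells transiently expressing human TRPA1.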

T1 sequence (O75762 whole entry): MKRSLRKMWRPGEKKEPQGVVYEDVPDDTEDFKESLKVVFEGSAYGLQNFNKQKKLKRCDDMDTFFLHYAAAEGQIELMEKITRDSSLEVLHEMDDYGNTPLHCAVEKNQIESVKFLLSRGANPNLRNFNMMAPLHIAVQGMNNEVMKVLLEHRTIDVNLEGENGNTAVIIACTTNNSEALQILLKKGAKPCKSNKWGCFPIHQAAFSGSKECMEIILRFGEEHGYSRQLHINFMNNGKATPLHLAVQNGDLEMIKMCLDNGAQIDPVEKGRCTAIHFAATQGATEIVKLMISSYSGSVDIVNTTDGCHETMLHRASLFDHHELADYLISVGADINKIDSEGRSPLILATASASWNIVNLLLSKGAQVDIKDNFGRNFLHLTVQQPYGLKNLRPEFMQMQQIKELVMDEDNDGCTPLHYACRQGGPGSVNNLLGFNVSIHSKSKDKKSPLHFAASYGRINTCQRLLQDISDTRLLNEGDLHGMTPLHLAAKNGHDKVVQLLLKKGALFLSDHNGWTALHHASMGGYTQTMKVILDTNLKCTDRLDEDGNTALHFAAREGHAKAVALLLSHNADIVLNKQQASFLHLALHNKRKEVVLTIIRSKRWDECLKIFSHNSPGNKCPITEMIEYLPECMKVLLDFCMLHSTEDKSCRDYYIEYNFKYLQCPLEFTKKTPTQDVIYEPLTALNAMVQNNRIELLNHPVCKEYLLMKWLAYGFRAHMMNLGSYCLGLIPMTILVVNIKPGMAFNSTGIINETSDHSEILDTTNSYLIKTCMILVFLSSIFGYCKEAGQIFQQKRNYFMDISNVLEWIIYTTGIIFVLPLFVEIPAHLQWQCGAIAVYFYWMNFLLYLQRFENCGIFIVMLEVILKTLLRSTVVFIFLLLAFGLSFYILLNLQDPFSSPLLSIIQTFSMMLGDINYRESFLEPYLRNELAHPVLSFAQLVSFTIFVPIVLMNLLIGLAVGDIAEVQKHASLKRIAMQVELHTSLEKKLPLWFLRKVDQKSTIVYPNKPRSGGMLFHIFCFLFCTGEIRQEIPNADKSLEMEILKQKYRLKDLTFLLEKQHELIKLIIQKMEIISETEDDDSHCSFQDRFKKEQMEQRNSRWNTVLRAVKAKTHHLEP

| IC50 [nM] | Compound |
| --- | --- |
| 120 | O=C(NCc1cccc(OCc2ccccc2F)c1)[C@@H]1CCCN1S(=O)(=O)c1ccc(F)cc1 [Example 128, (2S)-N-[[3-[(2-fluorophenyl)methoxy]phenyl]methyl]-1-(4-fluorophenyl)sulfonyl-pyrrolidine-2-carboxamide] |
| 640 | CN(C)c1ccccc1COc1cccc(CNC(=O)[C@@H]2CCCN2S(=O)(=O)c2ccc(F)cc2)c1 [Example 129, (2S)-N-[[3-[[2-(dimethylamino)phenyl]methoxy]phenyl]methyl]-1-(4-fluorophenyl)sulfonyl-pyrrolidine-2-carboxamide] |
| 20 | O=C(NCc1cccc(OCc2ccc(F)c(F)c2)c1)[C@@H]1CCCN1S(=O)(=O)c1ccc(F)cc1 [Example 130, (2S)-N-[[3-[(3,4-difluorophenyl)methoxy]phenyl]methyl]-1-(4-fluorophenyl)sulfonyl-pyrrolidine-2-carboxamide] |
| 14 | O=C(NCc1cccc(OCc2ccc(Cl)c(F)c2)c1)[C@@H]1CCCN1S(=O)(=O)c1ccc(F)cc1 [Example 131, (2S)-N-[[3-[(4-chloro-3-fluoro-phenyl)methoxy]phenyl]methyl]-1-(4-fluorophenyl)sulfonyl-pyrrolidine-2-carboxamide] |
| 2600 | O=C(NCc1cccc(OCc2cccnc2)c1)[C@@H]1CCCN1S(=O)(=O)c1ccc(F)cc1 [Example 132, (2S)-1-(4-fluorophenyl)sulfonyl-N-[[3-(3-pyridylmethoxy)phenyl]methyl]pyrrolidine-2-carboxamide] |
| 4400 | O=C(NCc1cccc(OCc2ccncc2)c1)[C@@H]1CCCN1S(=O)(=O)c1ccc(F)cc1 [Example 133, (2S)-1-(4-fluorophenyl)sulfonyl-N-[[3-(4-pyridylmethoxy)phenyl]methyl]pyrrolidine-2-carboxamide] |
| 38 | O=C(NCc1cccc(OCc2ccc(C(F)(F)F)nc2)c1)[C@@H]1CCCN1S(=O)(=O)c1ccc(F)cc1 [Example 134, (2S)-1-(4-fluorophenyl)sulfonyl-N-[[3-[[6-(trifluoromethyl)-3-pyridyl]methoxy]phenyl]methyl]pyrrolidine-2-carboxamide] |
| 67 | O=C(NCc1cccc(OCc2ccnc(C(F)(F)F)c2)c1)[C@@H]1CCCN1S(=O)(=O)c1ccc(F)cc1 [Example 135, (2S)-1-(4-fluorophenyl)sulfonyl-N-[[3-[[2-(trifluoromethyl)-4-pyridyl]methoxy]phenyl]methyl]pyrrolidine-2-carboxamide] |
| 140 | O=C(NCc1cccc(OCc2cccc(C(F)(F)F)n2)c1)[C@@H]1CCCN1S(=O)(=O)c1ccc(F)cc1 [Example 136, (2S)-1-(4-fluorophenyl)sulfonyl-N-[[3-[[6-(trifluoromethyl)-2-pyridyl]methoxy]phenyl]methyl]pyrrolidine-2-carboxamide] |
| 44 | O=C(NCc1cccc(OCc2cncc(C(F)(F)F)c2)c1)[C@@H]1CCCN1S(=O)(=O)c1ccc(F)cc1 [Example 137, (2S)-1-(4-fluorophenyl)sulfonyl-N-[[3-[[5-(trifluoromethyl)-3-pyridyl]methoxy]phenyl]methyl]pyrrolidine-2-carboxamide] |
| 110 | O=C(NCc1cccc(OCc2cncc(Cl)c2)c1)[C@@H]1CCCN1S(=O)(=O)c1ccc(F)cc1 [Example 138, (2S)-N-[[3-[(5-chloro-3-pyridyl)methoxy]phenyl]methyl]-1-(4-fluorophenyl)sulfonyl-pyrrolidine-2-carboxamide] |
| 290 | O=C(NCc1cccc(OCc2ccoc2)c1)[C@@H]1CCCN1S(=O)(=O)c1ccc(F)cc1 [Example 139, (2S)-1-(4-fluorophenyl)sulfonyl-N-[[3-(3-furylmethoxy)phenyl]methyl]pyrrolidine-2-carboxamide] |
| 330 | O=C(NCc1cccc(OCc2ccco2)c1)[C@@H]1CCCN1S(=O)(=O)c1ccc(F)cc1 [Example 140, (2S)-1-(4-fluorophenyl)sulfonyl-N-[[3-(2-furylmethoxy)phenyl]methyl]pyrrolidine-2-carboxamide] |
| 89 | O=C(NCc1cccc(OCc2ccsc2)c1)[C@@H]1CCCN1S(=O)(=O)c1ccc(F)cc1 [Example 141, (2S)-1-(4-fluorophenyl)sulfonyl-N-[[3-(3-thienylmethoxy)phenyl]methyl]pyrrolidine-2-carboxamide] |
| 110 | O=C(NCc1cccc(OCc2cccs2)c1)[C@@H]1CCCN1S(=O)(=O)c1ccc(F)cc1 [Example 142, (2S)-1-(4-fluorophenyl)sulfonyl-N-[[3-(2-thienylmethoxy)phenyl]methyl]pyrrolidine-2-carboxamide] |
| 550 | C[C@H](Oc1cccc(CNC(=O)[C@@H]2CCCN2S(=O)(=O)c2ccc(F)cc2)c1)c1ccccc1 [Example 144, (2S)-1-(4-fluorophenyl)sulfonyl-N-[[3-[(1S)-1-phenylethoxy]phenyl]methyl]pyrrolidine-2-carboxamide] |

| IC50 [nM] | Compound |
| --- | --- |
| 9800 | C[C@@H](Oc1cccc(CNC(=O)[C@@H]2CCCN2S(=O)(=O)c2ccc(F)cc2)c1)c1ccccn1 [Example 146, (2S)-1-(4-fluorophenyl)sulfonyl-N-[[3-[(1R)-1-(2-pyridyl)ethoxy]phenyl]methyl]pyrrolidine-2-carboxamide] |
| 8300 | C[C@H](Oc1cccc(CNC(=O)[C@@H]2CCCN2S(=O)(=O)c2ccc(F)cc2)c1)c1ccccn1 [Example 147, (2S)-1-(4-fluorophenyl)sulfonyl-N-[[3-[(1S)-1-(2-pyridyl)ethoxy]phenyl]methyl]pyrrolidine-2-carboxamide] |
| 340 | O=C(NCc1cccc(OCCc2ccccc2)c1)[C@@H]1CCCN1S(=O)(=O)c1ccc(F)cc1 [Example 148, (2S)-1-(4-fluorophenyl)sulfonyl-N-[(3-phenethyloxyphenyl)methyl]pyrrolidine-2-carboxamide] |
| 240 | O=C(NCc1cccc(OCc2ccc(C(F)(F)F)nc2)c1)[C@@H]1CCCN1S(=O)(=O)c1ccco1 [Example 149, (2S)-1-(2-furylsulfonyl)-N-[[3-[[6-(trifluoromethyl)-3-pyridyl]methoxy]phenyl]methyl]pyrrolidine-2-carboxamide] |
| 110 | O=C(NCc1cccc(OCc2ccnc(C(F)(F)F)c2)c1)[C@@H]1CCCN1S(=O)(=O)c1ccco1 [Example 150, (2S)-1-(2-furylsulfonyl)-N-[[3-[[2-(trifluoromethyl)-4-pyridyl]methoxy]phenyl]methyl]pyrrolidine-2-carboxamide] |
| 290 | O=C(NCc1ccc(Oc2cccc(C(F)(F)F)c2)cc1)[C@@H]1C=CCN1S(=O)(=O)c1ccc(F)cc1 [Example 151, (2S)-1-(4-fluorophenyl)sulfonyl-N-[[4-[3-(trifluoromethyl)phenoxy]phenyl]methyl]-2,5-dihydropyrrole-2-carboxamide] |
| 460 | O=C(NCc1ccc(Oc2cccc(C(F)(F)F)c2)cc1)[C@@H]1CCCN1S(=O)(=O)c1ccco1 [Example 152, (2S)-1-(2-furylsulfonyl)-N-[[4-[3-(trifluoromethyl)phenoxy]phenyl]methyl]pyrrolidine-2-carboxamide] |
| 310 | O=C(NCc1ccc(Oc2cccc(C(F)(F)F)c2)cc1)[C@@H]1CCCN1S(=O)(=O)c1ccoc1 [Example 153, (2S)-1-(3-furylsulfonyl)-N-[[4-[3-(trifluoromethyl)phenoxy]phenyl]methyl]pyrrolidine-2-carboxamide] |
| 180 | O=C(NCc1ccc(Oc2cccc(C(F)(F)F)c2)cc1)[C@@H]1CCCN1S(=O)(=O)c1ccsc1 [Example 154, (2S)-1-(3-thienylsulfonyl)-N-[[4-[3-(trifluoromethyl)phenoxy]phenyl]methyl]pyrrolidine-2-carboxamide] |
| 5700 | O=C(NCc1ccc(Oc2ccnc(C(F)(F)F)c2)cc1)[C@@H]1CCCN1S(=O)(=O)c1ccco1 [Example 155, (2S)-1-(2-furylsulfonyl)-N-[[4-[[2-(trifluoromethyl)-4-pyridyl]oxy]phenyl]methyl]pyrrolidine-2-carboxamide] |
| 1000 | O=C(NCc1ccc(Oc2ccnc(C(F)(F)F)c2)cc1)[C@@H]1CCCN1S(=O)(=O)c1ccsc1 [Example 156, (2S)-1-(3-thienylsulfonyl)-N-[[4-[[2-(trifluoromethyl)-4-pyridyl]oxy]phenyl]methyl]pyrrolidine-2-carboxamide] |
| 840 | O=C(NCc1cccc(Oc2ccc(C(F)(F)F)cc2)c1)[C@@H]1C[C@H](F)CN1S(=O)(=O)c1ccc(F)cc1 [Example 157, (2S,4S)-4-fluoro-1-(4-fluorophenyl)sulfonyl-N-[[3-[4-(trifluoromethyl)phenoxy]phenyl]methyl]pyrrolidine-2-carboxamide] |
| 210 | O=C(NCc1cccc(Oc2ccc(C(F)(F)F)cc2)c1)[C@@H]1CC(F)(F)CN1S(=O)(=O)c1ccc(F)cc1 [Example 159, (2S)-4,4-difluoro-1-(4-fluorophenyl)sulfonyl-N-[[3-[4-(trifluoromethyl)phenoxy]phenyl]methyl]pyrrolidine-2-carboxamide] |
| 210 | O=C(NCc1cccc(Oc2ccc(C(F)(F)F)cc2)c1)[C@@H]1C=CCN1S(=O)(=O)c1ccco1 [Example 160, (2S)-1-(2-furylsulfonyl)-N-[[3-[4-(trifluoromethyl)phenoxy]phenyl]methyl]-2,5-dihydropyrrole-2-carboxamide] |
| 57 | O=C(NCc1cccc(Oc2ccc(C(F)(F)F)cc2)c1)[C@@H]1C=CCN1S(=O)(=O)c1ccsc1 [Example 161, (2S)-1-(3-thienylsulfonyl)-N-[[3-[4-(trifluoromethyl)phenoxy]phenyl]methyl]-2,5-dihydropyrrole-2-carboxamide] |
| 96 | O=C(NCc1cccc(Oc2ccc(C(F)(F)F)cc2)c1)[C@@H]1CCCN1S(=O)(=O)c1ccoc1 [Example 162, (2S)-1-(3-furylsulfonyl)-N-[[3-[4-(trifluoromethyl)phenoxy]phenyl]methyl]pyrrolidine-2-carboxamide] |
